In brackets after ≈: the same amount, converted by molar mass.
What was measured:
[1] = design: method as in doi:10.1002/slct.201901228; settings: read-out: IC50 (anti-inflammatory efficacy); cited from earlier work
[2] = molecular target: T1, Lipoxygenase-5 (LOX-5) enzyme (Homo sapiens, UniProt P09917); assay: In vitro lipoxygenase (LOX-5) inhibitory assay; format: biochemical; settings: mean ± SEM, n = 5; read-out: IC50 (LOX-5 inhibition) (converted)
T1 construct: purchased sigma 437996-500U
T1 sequence (P09917 1-674): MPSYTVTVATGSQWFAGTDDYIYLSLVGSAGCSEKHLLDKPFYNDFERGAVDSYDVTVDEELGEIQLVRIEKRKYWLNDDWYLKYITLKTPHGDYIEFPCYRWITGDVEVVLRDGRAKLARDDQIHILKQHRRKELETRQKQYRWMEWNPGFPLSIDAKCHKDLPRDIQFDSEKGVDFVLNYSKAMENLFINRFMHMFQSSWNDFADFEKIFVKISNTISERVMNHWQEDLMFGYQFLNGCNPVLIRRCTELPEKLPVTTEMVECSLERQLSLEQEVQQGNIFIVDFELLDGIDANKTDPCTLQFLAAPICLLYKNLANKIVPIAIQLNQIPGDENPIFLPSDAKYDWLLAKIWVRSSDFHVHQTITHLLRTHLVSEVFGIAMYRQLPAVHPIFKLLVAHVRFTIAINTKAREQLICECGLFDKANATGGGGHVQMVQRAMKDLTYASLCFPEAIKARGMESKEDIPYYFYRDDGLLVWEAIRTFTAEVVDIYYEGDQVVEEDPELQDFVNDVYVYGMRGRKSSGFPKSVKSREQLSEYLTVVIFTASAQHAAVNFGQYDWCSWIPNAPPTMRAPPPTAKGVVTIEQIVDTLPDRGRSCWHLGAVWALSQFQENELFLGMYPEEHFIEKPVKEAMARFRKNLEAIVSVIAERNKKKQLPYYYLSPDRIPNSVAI
Protocol: Lipoxygenases are a family of monomeric proteins that catalyze oxidation of polyunsaturated fatty acids (PUFA) (linoleic, linolenic and arachidonic acid) to produce hydroperoxides. Fractions’ anti-LOX activity was also measured as inhibition of linoleic acid’s peroxidation to hydroperoxylinoleic acid.
To evaluate the prospects of the newly synthesized spirooxindoles as promising drug candidates, we first studied their inhibitory potency against the Lipoxygenase-5 (LOX-5) enzyme.

P. aeruginosa ATCC 27950 = assay: MBC by the agar method; settings: Pseudomonas aeruginosa, ATCC27950
Protocol: (§2) To further determine the killing efficiency of the synthesized spiropyrrolidines against selected strains, the minimum bactericidal concentration (MBC) and the minimum fungicidal concentration (MFC) were assessed by the agar method [54].

E. coli ATCC 25922 = assay: MBC by the agar method; settings: Escherichia coli, ATCC25922, E. coli ATCC 25922
Protocol: as §2

[3] = tested on: Staphylocoocus aureus ATCC 25923; assay: MIC, in vitro micro diffusion method; format: cell-based; settings: Staphylococcus aureus, ATCC25923; S. aureus ATCC 25923
Text: (§1) In this part, the spiropyrrolidines 4a–m were selected to be screening for their antimicrobial activities, using in vitro micro diffusion method, against multiple bacterial strains (Staphylocoocus aureus ATCC 25923, Escherichia coli ATCC 25922, Pseudomonas aeruginosa ATCC 27950, Micrococcus luteus NCIMB 8166), and two pathogenic reference yeasts namely Candida albicans ATCC 90028 and Candida kreusei ATCC 6258.

[4] = tested on: Candida albicans ATCC 90028; assay: MIC, in vitro micro diffusion method; format: cell-based; settings: ATCC90028, C. albicans ATCC 90028
Text: as §1

[5] = tested on: Candida kreusei ATCC 6258; assay: MIC, in vitro micro diffusion method; format: cell-based; settings: C. krusei ATCC 6258
Text: as §1

C. kreusei ATCC 6258 = assay: MFC by the agar method; settings: for MFC: Pichia kudriavzevii, ATCC6258
Protocol: as §2

M. luteus NCIMB 8166 = assay: MBC by the agar method; settings: for MBC: Micrococcus luteus, NCIMB8166
Protocol: as §2

C. albicans ATCC 90028 = assay: MFC by the agar method; settings: for MFC: Candida albicans, ATCC90028
Protocol: as §2

S. aureus ATCC 25923 = assay: MBC by the agar method; settings: Staphylococcus aureus, ATCC25923
Protocol: as §2

[6] = tested on: Micrococcus luteus NCIMB 8166; assay: MIC, in vitro micro diffusion method; format: cell-based; settings: NCIMB8166, M. luteus NCIMB 8166
Text: as §1

[7] = tested on: Escherichia coli ATCC 25922; assay: MIC, in vitro micro diffusion method; format: cell-based; settings: ATCC25922, E. coli ATCC 25922

| Structure (SMILES) | IC50 [1] | IC50 [2] | MBC (P. aeruginosa ATCC 27950) | MBC (E. coli ATCC 25922) | MIC [3] | MIC [4] | MIC [5] | melting point | MFC/MIC ratio (C. kreusei ATCC 6258; C. Krusei, ≤ 4 fungicidal, >4 fungistatic) | MFC (C. kreusei ATCC 6258) | MBC (M. luteus NCIMB 8166) | MFC/MIC ratio (C. albicans ATCC 90028; C. Albicans, ≤ 4 fungicidal, >4 fungistatic) | MFC (C. albicans ATCC 90028) | MBC (S. aureus ATCC 25923) | MIC [6] | MIC [7] | MBC/MIC ratio (M. luteus NCIMB 8166; M. luteus, ≤ 4 bactericidal, >4 bacteriostatic) |
| --- | --- | --- | --- | --- | --- | --- | --- | --- | --- | --- | --- | --- | --- | --- | --- | --- | --- |
| CC(C)Cc1ccc(C(C)C(=O)O)cc1 (centres unmarked) [ibuprofen] | 11.2 ± 1.9 µM | – | – | – | – | – | – | – | – | – | – | – | – | – | – | – | – |
| O=C1NC(=O)[C@]2(N1)[C@@H](c1ccc(Cl)cc1)[C@H](c1ccccc1)N[C@@]21C(=O)Nc2ccccc21 (racemic) [4e] | – | 3860 µM | 188 µg/mL (≈ 409 µM) | 750 µg/mL (≈ 1630 µM) | 46.9 µg/mL (≈ 102 µM) | 23.4 µg/mL (≈ 51.1 µM) | 46.9 µg/mL (≈ 102 µM) | 235 °C | ≤ 4 | 46.9 µg/mL (≈ 102 µM) | > 1500 µg/mL | ≤ 4 | 23.4 µg/mL (≈ 51.1 µM) | 93.8 µg/mL (≈ 204 µM) | – | – | – |
| COc1ccc([C@H]2[C@H](c3ccccc3)N[C@@]3(C(=O)Nc4ccc(Cl)cc43)[C@@]23NC(=O)NC3=O)cc1 (racemic) [4c] | – | 4420 µM | 93.8 µg/mL (≈ 192 µM) | 188 µg/mL (≈ 383 µM) | – | – | – | 211 °C | – | > 1500 µg/mL | 750 µg/mL (≈ 1530 µM) | – | 46.9 µg/mL (≈ 95.9 µM) | 188 µg/mL (≈ 383 µM) | 93.8 µg/mL (≈ 192 µM) | 188 µg/mL (≈ 383 µM) | 8 |
| O=C1/C(=C/c2cccc(F)c2)CCC[C@@]12[C@H](c1cccc(F)c1)[C@@H]1CSCN1[C@]21C(=O)Nc2ccccc21 [IVc] | 2.4 ± 1.3 µM | – | – | – | – | – | – | – | – | – | – | – | – | – | – | – | – |

From PMC10650415, “Synthesis of Tetracyclic Spirooxindolepyrrolidine-Engrafted Hydantoin Scaffolds: Crystallographic Analysis, Molecular Docking Studies and Evaluation of Their Antimicrobial, Anti-Inflammatory and Analgesic Activities” (Molecules, 2023)
